Laboratory results from patent US6593335B1, “Potassium channel openers” (Abbott Laboratories, priority 1997, dated 2003).

Target: potassium channels (Sus scrofa, UniProt F1SR11)
Test: Functional potassium channel opening activity in isolated Landrace pig bladder strips (field-stimulated twitch)
Settings: for Landrace Pig Bladder Index: ED50 for P1075 divided by ED50 for the test agonist, averaged over tissues; for Landrace Pig Bladder pD2: negative logarithm of ED50; for Emax: pig; for Emax / Landrace Pig Bladder Efficacy (% P1075): maximal efficacy relative to P1075, field stimulation 0.05Hz, 0.5 milli-seconds at 20 volts
Protocol: The entire bladder was removed and ed into Krebs Ringer bicarbonate solution (composition, mM: NaCl,; dextrose, 1; KCl, 4.7; […] Propranolol (0.004 ed in all of the assays to block […]. The trigonal and dome […]. Strips 3-5 mm wide and 20 mm long were prepared from the cut in a circular fashion. The mucosal layer was removed. One end ationary glass rod and the other to a Grass FT03 transducer at a basal am. Two parallel platinum electrodes were included in the stationary ide field stimulation of 0.05Hz, 0.5 milli-seconds at 20 volts. […] Tissues were allowed to equilibrate for at least 60 minutes and primed with 80 mM KCl. A control concentration response curve (cumulative) was generated for each tissue using the potassium channel opener […] as the control agonist. […] After a 60 minute rinsing period, a concentration response curve (cumulative) was generated for the test agonist in the same fashion as that used for the control agonist […]. The maximal efficacy of each compound (expressed as % relative to […]) is reported. […] J. Physiol. 235, E97 (1980)), and agonist potencies were expressed as pD2 (the negative logarithm). Agonist potencies were also expressed as an index relative to […]. The index was calculated by dividing the ED50 for […] by the ED50 for the test agonist in a given tissue. Each tissue was used for only one test agonist, and the indices obtained from each tissue were averaged to provide an average index of potency.

Landrace Pig Bladder Index | Landrace Pig Bladder pD2 | Emax [%] | Landrace Pig Bladder Efficacy (% P1075) | Structure (SMILES)
0.11 | 6.0 | 85 | – | O=C1CCCC2=C1C(c1ccc(F)c(Cl)c1)C1=C(CCCS1(=O)=O)N2 (stereo not drawn) [Example 3, 10-(3-chloro-4-fluorophenyl)-3,4,6,7,8,10-hexahydro-2H-thiopyrano [3,2-b]quinolin-9(5H)-one, 1,1-dioxide]
0.23 | 6.3 | 96 | – | O=C1CCC2=C1C(c1ccc(Cl)c([N+](=O)[O-])c1)C1=C(CCS1(=O)=O)N2 (single isomer, unassigned) [Example 161]
0.17 | 6.7 | – | 100 | O=C1CCCC2=C1C(c1ccc(F)c(Cl)c1)C1=C(CCS1(=O)=O)N2 (single isomer, unassigned; (-)) [Example 110, (−)-9-(3-chloro-4-fluorophenyl)-2,3,5,6,7,9-hexahydrothieno[3.2-b]quinolin-8(4H)-one, 1,1-dioxide]
0.026 | 5.4 | 98 | – | Cc1ccc(C2C3=C(CCCC3=O)NC3=C2S(=O)(=O)CC3)cc1C#N (single isomer, unassigned) [Example 155, 9-(3-cvano-4-methylphenyl)-2,3 5,6,7,9-hexahydrothieno[3,2-b]guinolin-8(4H)-one, 1,1-dioxide]
0.032 | 5.7 | 99 | – | O=S1(=O)CCC2=C1C(c1ccc(F)c(Br)c1)C=C(C(F)(F)F)N2 (stereo not drawn) [Example 112, 7-(3-bromo-4-fluorophenyl)-5-(trifluoromethyl)-2,3,4,7-tetrahydrothieno [3,2-b]pyridine. 1,1-dioxide]
0.18 | 6.2 | 93 | – | O=C1CCCC2=C1C(c1ccc(F)c(Br)c1)C1=C(CCCS1(=O)=O)N2 (stereo not drawn) [Example 4, 10-(3-bromo-4-fluorophenyl)-3,4,6,7,8,10-hexahydro-2H-thiopyrano [3,2-b]quinolin-9(5H)-one, 1,1-dioxide]
1.2 | 6.6 | 80 | – | O=C1CCCC2=C1C(c1ccc(F)c(I)c1)C1=C(CCS1(=O)=O)N2 (single isomer, unassigned) [Example 149, 9-(4-fluoro-3-iodophenyl)-2,3,5,6,7,9-hexahydrothieno[3 2-b]quinolin-8(4H)-one, 1,1-dioxide]
0.059 | 5.7 | 100 | – | O=C1CCCC2=C1C(c1ccc3nonc3c1)C1=C(CCS1(=O)=O)N2 (single isomer, unassigned; (+)) [Example 97, (+)-9-(2. 1,3-benzoxadiazol-5-yl)-2,3,5,6,7,9-hexahydrothieno[3.2-b]quinolin-8(4H)-one, 11-dioxide]
0.0053 | 4.4 | 81 | – | CC1=C(S(C)(=O)=O)C(c2ccc(C)c([N+](=O)[O-])c2)C2=C(CCCC2=O)N1 (stereo not drawn) [Example 23, 4,6,7,8-tetrahydro-2-methyl-4-(4-methyl-3-nitrophenyl)-3-(methylsulfonyl)-5(1H)-quinolinone]
0.41 | 6.6 | 98 | – | O=C1CCCC2=C1C(c1ccc(F)c(Br)c1)C1=C(CCS1(=O)=O)N2 (stereo not drawn) [Example 43, 9-(3-bromo-4-fluoronhenyl)-2,3,5,6,7,9-hexahydrothieno [3,2-b]quinolin-8(4H)-one, 1,1-dioxide]
0.026 | 5.3 | 94 | – | O=C1CCC2=C1C(c1cccc([N+](=O)[O-])c1)C1=C(CCS1(=O)=O)N2 (stereo not drawn) [Example 58, 2,3,4,5,6,8-hexahydro-8-(3-nitrophenyl)-7H-cyclopenta[b]thieno [2.3-e]pyridin-7-one, 1,1-dioxide]
0.15 | 6.2 | 99 | – | O=C1CCC2=C1C(c1ccc(Cl)c([N+](=O)[O-])c1)C1=C(CCS1(=O)=O)N2 (stereo not drawn) [Example 44, 8-(4-chloro-3-nitrophenyl)-2,3,4,5,6,8-hexahydro-7H-cyclopenta[b]thieno[2,3-e]pyridin-7-one 1,1-dioxide]
0.17 | 6.4 | – | 100 | O=C1CCCC2=C1C(c1ccc(Cl)c([N+](=O)[O-])c1)C1=C(CCS1(=O)=O)N2 (single isomer, unassigned; (-)) [Example 100, (−)-9-(4-chloro-3-nitrophenyl)-2,3,5,6,7,9-hexahydrothieno[3,2-b]quinolin-8(4H)-one, 1,1-dioxide]
0.022 | 5.5 | 100 | – | O=C1CCCC2=C1C(c1cccc([N+](=O)[O-])c1)C1=C(CCCS1(=O)=O)N2 (stereo not drawn) [Example 1, 3,4,6,7,8,10-hexahydro-10-(3-nitrophenyl)-2H-thiopyrano[3,2-b]quinolin-9(5H)-one, 1,1-dioxide]
0.69 | 6.8 | 100 | – | O=C1CCCC2=C1[C@H](c1ccc(F)c(Br)c1)C1=C(CCS1(=O)=O)N2 [Example 84, (−)-(9S)-9-(3-bromo-4-fluorophenyl)-2,3,5,6,7,9-hexahydrothieno [3,2-b]quinolin-8(4H)-one, 1,1-dioxide]
0.17 | 6.6 | 100 | – | O=S1(=O)CCC2=C1C(c1ccc(F)c(Br)c1)C1=C(CCS1(=O)=O)N2 [Example 53, 8-(3-bromo-4-fluorophenyl)-2,3,4,5,6,8-hexahydrodithieno [3.2-b:2′,3′-e]pyridine, 1,1,7,7-tetraoxide]
0.057 | 5.6 | – | 100 | O=C1CCCC2=C1C(c1ccc3nonc3c1)C1=C(CCS1(=O)=O)N2 (single isomer, unassigned; (-)) [Example 98, (−)-9-(2.1 .3-benzoxadiazol-5-yl)-2,3.5,6.7,9-hexahydrothieno[3.2-b]guinolin-8(4H)-one, 1,1-dioxide]
0.0099 | 4.5 | 78 | – | CC1=C(S(C)(=O)=O)C(c2cccc([N+](=O)[O-])c2)C2=C(CCCC2=O)N1 (stereo not drawn) [Example 26, 4,6,7,8-tetrahydro-2-methyl-3-(methylsulfonyl)-4-(3-nitrophenyl)-5(1H)-quinolinone]
0.15 | 6.2 | 96 | – | O=C1CCCC2=C1C(c1ccc(Cl)c(Cl)c1)C1=C(CCCS1(=O)=O)N2 (stereo not drawn) [Example 2]
0.011 | 5.0 | 100 | – | O=C1CCCC2=C1C(c1cccc(Cl)c1)C1=C(CCCS1(=O)=O)N2 (stereo not drawn) [Example 16, 10-(3-chlorophenyl)-3,4,6,7,8,10-hexahydro-2H-thiopyrano [3.2-b]quinolin-9(5H)-one, 1,1-dioxide]
0.20 | 6.3 | 99 | – | Cc1ccc(C2C3=C(CCCC3=O)NC3=C2S(=O)(=O)CC3)cc1[N+](=O)[O-] (single isomer, unassigned) [Example 126, 9-(4-methyl-3-nitrophenyl)-2,3 5,6,7,9-hexahydro[3. 2-b]guinolin-8(4H)-one, 1,1-dioxide]
0.069 | 6.5 | 100 | – | O=C1CCC2=C1C(c1ccc(F)c(Br)c1)C1=C(CCS1(=O)=O)N2 (single isomer, unassigned; (-)) [Example 86]
0.0069 | 4.5 | 77 | – | CC1=C(S(C)(=O)=O)C(c2cc(F)c(F)c(F)c2)C2=C(CCCC2=O)N1 (stereo not drawn) [Example 22, 4-(3,4,5-trifluorophenyl)-4,6,7,8-tetrahydro-2-methyl-3-(methylsulfonyl)-5(1H)-quinolinone]
0.035 | 5.8 | 94 | – | O=C1CCCC2=C1C(c1ccc(F)c(-c3ccco3)c1)C1=C(CCS1(=O)=O)N2 (single isomer, unassigned) [Example 165, 9-[4-fluoro-3-(2-fMrIl)phenyl]-2,3,5,6,7,9-hexahydrothieno[3,2-b]quinolin-8(4H)-one, 1,1-dioxide]
0.32 | 6.8 | 100 | – | O=C1CCCC2=C1C(c1ccc(Cl)c([N+](=O)[O-])c1)C1=C(CCS1(=O)=O)N2 (stereo not drawn) [Example 34, 9-(4-chloro-3-nitrophenyl)-2,3,5,6,7,9-hexahydrothieno [3,2-b]quinolin-8(4H)-one, 1,1-dioxide]
0.073 | 5.9 | 92 | – | O=S1(=O)CCC2=C1C(c1ccc(F)c(Br)c1)C=C(C(F)(F)F)N2 (single isomer, unassigned) [Example 136, 7-(3-bromo-4-fluorophenyl)-5-(trifluoromethyl)-2, 3 4 7-tetrahydrothieno[3 2-b]pyridine, 1,1-dioxide]
